How the values were obtained:
Assay in all cases: In vitro antibacterial activity, agar dilution MIC
Format in all cases: cell-based
[1] = system: Streptococcus Pneumonia 5979; settings: code ZZ: Streptococcus Pneumonia 5979; BHI agar, 35-37° C., 20 to 24 hours; unit assumed
Description: (§1) Representative compounds of the present invention were assayed in vitro for antibacterial activity as follows: Twelve petri dishes containing successive aqueous dilutions of the test compound mixed with 10 mL of sterilized Brain Heart Infusion (BHI) agar (Difco 0418-01-5) were prepared. Each plate was inoculated with 1:100 (or 1:10 for slow-growing strains, such as Micrococcus and Streptococcus) dilutions of up to 32 different microorganisms, using a Steers replicator block. The inoculated plates were incubated at 35-37° C. for 20 to 24 hours. In addition, a control plate, using BHI agar containing no test compound, was prepared and incubated at the beginning and end of each test.
(§2) An additional plate containing a compound having known susceptibility patterns for the organisms being tested and belonging to the same antibiotic class as the test compound was also prepared and incubated as a further control, as well as to provide test-to-test comparability.
(§3) After incubation, each plate was visually inspected. The minimum inhibitory concentration (MIC) was defined as the lowest concentration of drug yielding no growth, a slight haze, or sparsely isolated colonies on the inoculum spot as compared to the growth control.

Candida albicans CCH 442 = settings: code TT: Candida albicans CCH 442; BHI agar, 35-37° C., 20 to 24 hours; unit assumed
Description: as §1
as §2, with “comparability. Erythromycin A was used for this purpose.” for “comparability.”
as §3

[2] = system: Staphylococcus aureus 1775; settings: code GG: Staphylococcus aureus 1775; BHI agar, 35-37° C., 20 to 24 hours; unit assumed
Description: as §1
as §2, with “comparability. Erythromycin A was used for this purpose.” for “comparability.”
as §3

Escherichiacoli JUHL = settings: code QQ: Escherichiacoli JUHL; BHI agar, 35-37° C., 20 to 24 hours; unit assumed
Description: as §1
as §2, with “comparability. Erythromycin A was used for this purpose.” for “comparability.”
as §3

[3] = system: Mycobacterium smegmatis ATCC 114; settings: code UU: Mycobacterium smegmatis ATCC 114; BHI agar, 35-37° C., 20 to 24 hours; unit assumed
Description: as §1
as §2, with “comparability. Erythromycin A was used for this purpose.” for “comparability.”
as §3

[4] = system: Staphylococcus epidermidis 3519; settings: code HH: Staphylococcus epidermidis 3519; BHI agar, 35-37° C., 20 to 24 hours; unit assumed
Description: as §1
as §2, with “comparability. Erythromycin A was used for this purpose.” for “comparability.”
as §3

[5] = system: Nocardia Asteroides ATCC 99700; settings: code VV: Nocardia Asteroides ATCC 99700; BHI agar, 35-37° C., 20 to 24 hours; unit assumed
Description: as §1
as §2, with “comparability. Erythromycin A was used for this purpose.” for “comparability.”
as §3

[6] = system: Streptococcus Pneumonia 5649; settings: code ZA: Streptococcus Pneumonia 5649; BHI agar, 35-37° C., 20 to 24 hours; unit assumed
Description: as §1
as §2, with “comparability. Erythromycin A was used for this purpose.” for “comparability.”
as §3

[7] = system: Streptococcus bovis A-5169; settings: code JJ: Streptococcus bovis A-5169; BHI agar, 35-37° C., 20 to 24 hours; unit assumed
Description: as §1
as §2, with “comparability. Erythromycin A was used for this purpose.” for “comparability.”
as §3

[8] = system: Staphylococcus aureus A-5177; settings: code BB: Staphylococcus aureus A-5177; BHI agar, 35-37° C., 20 to 24 hours; unit assumed
Description: as §1
as §2, with “comparability. Erythromycin A was used for this purpose.” for “comparability.”
as §3

[9] = system: Streptococcus agalactiae CMX 508; settings: code KK: Streptococcus agalactiae CMX 508; BHI agar, 35-37° C., 20 to 24 hours; unit assumed
Description: as §1
as §2, with “comparability. Erythromycin A was used for this purpose.” for “comparability.”
as §3

[10] = system: Streptococcus Pneumonia GYR 1171; settings: code YY: Streptococcus Pneumonia GYR 1171; BHI agar, 35-37° C., 20 to 24 hours; unit assumed
Description: as §1
as §2, with “comparability. Erythromycin A was used for this purpose.” for “comparability.”
as §3

[11] = system: Streptococcus pyogenes EES61; settings: code LL: Streptococcus pyogenes EES61; BHI agar, 35-37° C., 20 to 24 hours; unit assumed
Description: as §1
as §2, with “comparability. Erythromycin A was used for this purpose.” for “comparability.”
as §3

[12] = system: Streptococcus Pneumonia ATCC 6303; settings: code XX: Streptococcus Pneumonia ATCC 6303; BHI agar, 35-37° C., 20 to 24 hours; unit assumed
Description: as §1
as §2, with “comparability. Erythromycin A was used for this purpose.” for “comparability.”
as §3

Escherichiacoli SS = settings: code RR: Escherichiacoli SS; BHI agar, 35-37° C., 20 to 24 hours; unit assumed
Description: as §1
as §2, with “comparability. Erythromycin A was used for this purpose.” for “comparability.”
as §3

[13] = system: Staphylococcus aureus ATCC 6538P; settings: code AA: Staphylococcus aureus ATCC 6538P; BHI agar, 35-37° C., 20 to 24 hours; unit assumed
Description: as §1
as §2, with “comparability. Erythromycin A was used for this purpose.” for “comparability.”
as §3

[14] = system: Micrococcusluteus ATCC 4698; settings: code PP: Micrococcusluteus ATCC 4698; BHI agar, 35-37° C., 20 to 24 hours; unit assumed
Description: as §1
as §2, with “comparability. Erythromycin A was used for this purpose.” for “comparability.”
as §3

[15] = system: Haemophilislnfluenzae DILL AMP R; settings: code WW: Haemophilislnfluenzae DILL AMP R; BHI agar, 35-37° C., 20 to 24 hours; unit assumed
Description: as §1
as §2, with “comparability. Erythromycin A was used for this purpose.” for “comparability.”
as §3

[16] = system: Streptococcus pyogenes 930; settings: code MM: Streptococcus pyogenes 930; BHI agar, 35-37° C., 20 to 24 hours; unit assumed
Description: as §1
as §2, with “comparability. Erythromycin A was used for this purpose.” for “comparability.”
as §3

[17] = system: Staphylococcus aureus A-5278; settings: code CC: Staphylococcus aureus A-5278; BHI agar, 35-37° C., 20 to 24 hours; unit assumed
Description: as §1
as §2, with “comparability. Erythromycin A was used for this purpose.” for “comparability.”
as §3

[18] = system: Streptococcus pyogenes PIU 2548; settings: code NN: Streptococcus pyogenes PIU 2548; BHI agar, 35-37° C., 20 to 24 hours; unit assumed
Description: as §1
as §2, with “comparability. Erythromycin A was used for this purpose.” for “comparability.”
as §3

[19] = system: Staphylococcus aureus NCTC 10649M; settings: code EE: Staphylococcus aureus NCTC 10649M; BHI agar, 35-37° C., 20 to 24 hours; unit assumed
Description: as §1
as §2, with “comparability. Erythromycin A was used for this purpose.” for “comparability.”
as §3

SMILES	Antibacterial Activity (MIC) [1] [µg/mL]	Antibacterial Activity (MIC) (Candida albicans CCH 442) [µg/mL]	Antibacterial Activity (MIC) [2] [µg/mL]	Antibacterial Activity (MIC) (Escherichiacoli JUHL) [µg/mL]	Antibacterial Activity (MIC) [3] [µg/mL]	Antibacterial Activity (MIC) [4] [µg/mL]	Antibacterial Activity (MIC) [5] [µg/mL]	Antibacterial Activity (MIC) [6] [µg/mL]	Antibacterial Activity (MIC) [7] [µg/mL]	Antibacterial Activity (MIC) [8] [µg/mL]	Antibacterial Activity (MIC) [9] [µg/mL]	Antibacterial Activity (MIC) [10] [µg/mL]	Antibacterial Activity (MIC) [11] [µg/mL]	Antibacterial Activity (MIC) [12] [µg/mL]	Antibacterial Activity (MIC) (Escherichiacoli SS) [µg/mL]	Antibacterial Activity (MIC) [13] [µg/mL]	Antibacterial Activity (MIC) [14] [µg/mL]	Antibacterial Activity (MIC) [15] [µg/mL]	Antibacterial Activity (MIC) [16] [µg/mL]	Antibacterial Activity (MIC) [17] [µg/mL]	also measured
CCC1OC(=O)C(C)C(=O)C(C)C(OC2OC(C)CC(N(C)C)C2O)C(C)(OCC=Cc2cnc3ccccc3c2)CC(C)CN(C)C(C)C2OC(=O)OC12C (centres unmarked) [Example 6, Compound of formula (II): R^1 is —CH2CH═CH-(3-quinolinyl), R^2 and R^3 together are oxo, R^4 and R^5 together are —C(O)—, R^6 is methyl, R^8 is hydrogen]	> 128	> 100	> 100	50	6.2	0.2	0.1	8	0.02	12.5	0.05	0.03	0.05	0.06	0.78	0.2	0.39	4	> 100	> 100	Antibacterial Activity (MIC) [18]: 6.2 µg/mL; Antibacterial Activity (MIC) [19]: 0.39 µg/mL
C=CCOC1(C)CC(C)CN(C)C(C)C(O)C(C)(O)C(CC)OC(=O)C(C)C(O)C(C)C1OC1OC(C)CC(N(C)C)C1O (centres unmarked) [Example 4, Compound of formula (II): R^1 is —CH2CH═CH2, R^2 is hydrogen, R^3 is —OR^13, R^13 is hydrogen, R^4 is hydrogen, R^5 is hydrogen, R^6 is methyl, R^8 is hydrogen]	> 128	> 100	> 100	50	6.2	0.39	0.05	8	0.02	6.2	0.05	0.03	0.05	0.03	0.78	0.39	0.39	4	> 100	> 100	Antibacterial Activity (MIC) [18]: 6.2 µg/mL; Antibacterial Activity (MIC) [19]: 0.39 µg/mL

From US6764996B1, “9a-azalides with antibacterial activity” (Abbott Laboratories, priority 1999, dated 2004)
